Measured values as given in patent publication US20250099420A1, “SMALL MOLECULE MODULATORS OF GPR139 COMPLEX” (University of Florida Research Foundation, Incorporated, priority 2022, published 2025).
pEC50: −log10 of the molar value. Read-outs that look alike come from different tables or passages of the source.

Experiments:
parental HEK cells = assay: HEK parental Agonist Counterscreen Assay (non-transfected cells); format: cell-based; conditions: for Averaged Max % Response (±St. Dev.): activity relative to known control
Source text: The high control for the agonist counterscreen was Forskolin not acetylcholine.

GPR139 = target: T1, GPR139 (Homo sapiens, UniProt Q6DWJ6); assay: GPR139 Agonist titration / agonist counterscreen assay (calcium detection, HEK-GPR139 cells); format: cell-based; parameters: expressed in transfected cells; host or cells: HEK Aequorin cells, Maxcyte transient transfection; conditions: GPR139 Agonist Activity; for Averaged Max % Response (±St. Dev.): activity relative to known control; for pEC50: read-out: EC50
T1 sequence (Q6DWJ6 1-353): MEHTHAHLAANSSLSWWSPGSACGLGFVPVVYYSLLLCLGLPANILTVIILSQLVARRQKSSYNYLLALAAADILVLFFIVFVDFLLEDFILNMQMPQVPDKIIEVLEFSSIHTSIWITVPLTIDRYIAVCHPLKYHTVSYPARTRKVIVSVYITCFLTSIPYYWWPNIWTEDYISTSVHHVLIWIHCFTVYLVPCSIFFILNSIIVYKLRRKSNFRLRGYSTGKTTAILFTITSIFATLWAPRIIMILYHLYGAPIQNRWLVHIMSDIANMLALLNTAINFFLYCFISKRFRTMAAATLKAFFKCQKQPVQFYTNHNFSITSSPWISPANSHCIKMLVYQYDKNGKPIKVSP
Method: GPR activity was assessed using a calcium detection assay. […] Negative control samples were treated with DMSO. […] Intracellular calcium was measured using Calcium 5.

[1] = Homo sapiens, HEK293, HEK Agonist Activity section of Table 4 (parental HEK counterscreen)
[2] = values printed in E-notation without unit
[3] = HEK Agonist Activity section of Table 4 (parental HEK counterscreen)
[4] = Homo sapiens, HEK293, HEK Agonist Activity, parental non-transfected HEK cells
[5] = HEK Agonist Activity, parental non-transfected HEK cells

Row | Lipophilic Efficiency (logD) (parental HEK cells; HEK Agonist Activity section) | Lipophilic Efficiency (logP) (parental HEK cells; HEK Agonist Activity section) | Averaged Max % Response (±St. Dev.) (GPR139) [%] | Lipophilic Efficiency (logD) (GPR139; based on logD) | Lipophilic Efficiency (logP) (GPR139; based on logP) | Hill Slope (GPR139; fitted dose-response curve) | Efficiency Ligand (GPR139; ligand efficiency) | pEC50 (GPR139; [2]) | Efficiency Ligand (GPR139) | Hill Slope (GPR139) | Lipophilic Efficiency (logD) (GPR139) | Lipophilic Efficiency (logP) (GPR139) | pEC50 (GPR139; HEK-GPR139 cells) | Lipophilic Efficiency (logD) (parental HEK cells; HEK Agonist Activity) | Lipophilic Efficiency (logP) (parental HEK cells; HEK Agonist Activity) | SMILES | Averaged Max % Response (±St. Dev.) (parental HEK cells; HEK Agonist Activity section) [%] | pEC50 (parental HEK cells; [1]) | pEC50 (parental HEK cells; [3]) | Averaged Max % Response (±St. Dev.) (parental HEK cells; HEK Agonist Activity) [%] | also measured
1 | 1.25 | 1.25 | 105.74 ± 4.40 | 3.09 | 3.09 | 1.05 | 0.39 | 6.69 | – | – | – | – | – | – | – | CCOc1ccc(C(=O)NCCc2ccc(F)cc2)cc1OCC [SR-01000243797] | 10.10 ± 12.81 | < 4.85 | – | – | –
2 | 1.58 | 1.58 | 92.90 ± 12.57 | 3.53 | 3.53 | 1.38 | 0.37 | 6.80 | – | – | – | – | – | – | – | O=C(CN1CCN(Cc2ccccc2Cl)C1=O)NC1CCCCCCC1 [SR-01000125462] | 6.02 ± 12.03 | – | < 4.85 | – | –
3 | 1.68 | 1.68 | 96.08 ± 11.27 | – | – | – | – | – | 0.34 | 0.88 | 2.98 | 2.98 | 6.15 | – | – | COc1cccc(COC(=O)NC(C)C2COc3ccccc3O2)c1 (stereo not shown) [SR-01000362527] | 12.25 ± 2.76 | < 4.85 | – | – | –
4 | 1.74 | 1.67 | 94.36 ± 3.49 | 3.88 | 3.82 | 0.63 | 0.41 | – | – | – | – | – | – | – | – | Cc1ccc(NC(=O)NNC(=O)COc2ccc(Cl)cc2)c(C)c1 [SR-01000309617] | −3.26 ± 4.40 | < 4.84 | – | – | –
5 | – | – | 79.43 ± 7.55 | 4.54 | 4.54 | – | 0.41 | – | – | – | – | – | – | 1.20 | 1.20 | O=C(CCc1nc2cccnc2n1Cc1cccs1)NCCc1ccccc1 [SR-01000077904] | – | – | – | −12.58 ± 9.87 | pEC50 (parental HEK cells; [4]): < 4.85
6 | 3.21 | 3.20 | 109.38 ± 5.55 | 5.22 | 5.22 | 0.54 | 0.32 | 6.83 | – | – | – | – | – | – | – | CC1(c2ccc3c(c2)OCO3)NC(=O)N(CC(=O)Nc2ccccc2[N+](=O)[O-])C1=O (stereo not shown) [SR-01000074154] | 11.86 ± 8.71 | – | < 4.82 | – | –
7 | 0.70 | 0.70 | 76.15 ± 6.21 | – | – | – | – | – | 0.36 | 0.68 | 2.32 | 2.32 | 6.47 | – | – | Cn1c(CCc2ccc(F)cc2F)nnc1C1=C(O)N=C2CC=CC21 (stereo not shown) [SR-01000922914] | −4.64 ± 6.81 | < 4.85 | – | – | –
8 | – | – | 103.66 ± 2.94 | 4.73 | 4.73 | 0.17 | 0.37 | 7.39 | – | – | – | – | – | 2.18 | 2.18 | CC1(c2ccc3ccccc3c2)NC(=O)C(CC(=O)NCc2ccco2)C1=O (stereo not shown) [SR-01000058120] | – | – | – | 11.91 ± 6.77 | pEC50 (parental HEK cells; [4]): < 4.84
9 | 2.71 | 2.71 | 113.08 ± 17.13 | – | – | – | – | – | 0.37 | 0.77 | 4.40 | 4.40 | 6.54 | – | – | O=C(CN1CCCN(Cc2ccc(F)cc2Cl)C1=O)NC1CCCC1 [SR-01000146446] | −2.89 ± 4.65 | – | < 4.85 | – | –
10 | 1.11 | 1.09 | 92.13 ± 1.72 | – | – | – | – | – | 0.30 | 0.47 | 2.69 | 2.68 | 6.44 | – | – | Cc1ccccc1-c1nc(C[S+]([O-])CC(=O)NC(C)CCc2ccccc2)c(C)o1 (stereo not shown) [SR-01000129545] | 32.45 ± 12.40 | – | < 4.85 | – | –
11 | – | – | 87.90 ± 18.60 | 4.85 | 4.85 | 0.93 | 0.36 | 7.76 | – | – | – | – | – | 1.93 | 1.93 | COc1ccccc1CC1(C)NC(=O)N(CC(=O)NC(C)c2cccc(Cl)c2)C1=O (stereo not shown) [SR-01000069564] | – | – | – | −3.54 ± 8.88 | pEC50 (parental HEK cells; [5]): < 4.84
12 | 1.35 | 1.34 | 85.12 ± 11.10 | 3.36 | 3.36 | 0.80 | 0.40 | 6.86 | – | – | – | – | – | – | – | O=C(Cc1cccc2ccccc12)Nc1nnc(-c2cccs2)o1 [SR-01000012264] | 3.88 ± 6.42 | – | < 4.84 | – | –
13 | – | – | 91.26 ± 4.77 | 5.92 | 5.67 | 0.48 | 0.37 | 7.65 | – | – | – | – | – | 3.12 | 2.87 | CC(C)(C)CN1CCNC(=O)C1CC(=O)NCCc1cnn(-c2ccccc2)c1 (stereo not shown) [SR-01000177515] | – | – | – | 24.98 ± 4.71 | pEC50 (parental HEK cells; [5]): < 4.85
14 | – | – | 115.59 ± 14.29 | 4.05 | 4.05 | 0.81 | 0.39 | 7.47 | – | – | – | – | – | 1.43 | 1.43 | COc1ccc(NC(=O)NCCOc2cccc3ccccc23)cc1OC [SR-01000223498] | – | – | – | 15.10 ± 2.28 | pEC50 (parental HEK cells; [4]): < 4.85
15 | 2.17 | 2.17 | 84.08 ± 9.93 | – | – | – | – | – | 0.30 | 1.38 | 3.11 | 3.10 | 5.80 | – | – | O=C(COc1ccc2ccccc2c1)NNC(=O)c1cccc([N+](=O)[O-])c1 [SR-01000362228] | −0.15 ± 6.76 | – | < 4.85 | – | –
16 | 1.39 | 1.39 | 74.83 ± 7.16 | – | – | – | – | – | 0.29 | 0.27 | 2.77 | 2.77 | 6.23 | – | – | O=C(CN1C(=O)NC2(CCc3ccccc3C2)C1=O)Nc1cccc2ccccc12 (stereo not shown) [SR-01000042749] | −8.38 ± 6.55 | < 4.85 | – | – | –
